Data: patent publication US11535629B2, “Dioxoloisoquinolinone derivatives and use thereof” (HANMI PHARMACEUTICAL CO., LTD., priority 2020, dated 2022)

Tested on: KARPAS-422 cells
Assay: Cell growth inhibition test (CTG method)
Format: cell-based
Conditions: Homo sapiens, KARPAS-422, 168 h, KARPAS-422 (EZH2^Y641N mutant), culturing for 7 days; read-out: Cell growth inhibitory activity (GI50, nM) KARPAS-422 (EZH2^Y641N mutant)
Protocol: The cultured cell strain was prepared at 1.8×10^4 cells/400 μL and placed in a 48-well plate.

SMILES	GI50 [nM]
Cc1cc(C)c(CN2CCc3c(c(C)c4c(c3-c3ccc(F)nc3)O[C@](C)([C@H]3CC[C@H](N(C)C)CC3)O4)C2=O)c(=O)[nH]1 [Compound 36, (R)-6-((4,6-dimethyl-2-oxo-1,2-dihydropyridin-3-yl)methyl)-2-(trans-4-(dimethylamino)cyclohexyl)-9-(6-fluoropyridin-3-yl)-2,4-dimethyl-7,8-dihydro-[1,3]dioxolo[4,5-g]isoquinolin-5(6H)-one]	5.8
Cc1cc(C)c(CN2CCc3c(c(C)c4c(c3-c3ccc(F)nc3)O[C@@](C)([C@H]3CC[C@H](N(C)C)CC3)O4)C2=O)c(=O)[nH]1 [Compound 37, (S)-6-((4,6-dimethyl-2-oxo-1,2-dihydropyridin-3-yl)methyl)-2-(trans-4-(dimethylamino)cyclohexyl)-9-(6-fluoropyridin-3-yl)-2,4-dimethyl-7,8-dihydro-[1,3]dioxolo[4,5-g]isoquinolin-5(6H)-on]	> 1000
Cc1cc(C)c(CN2CCc3c(c(C)c4c(c3-c3cnn(C)c3)O[C@](C)([C@H]3CC[C@H](N(C)C)CC3)O4)C2=O)c(=O)[nH]1 [Compound 38, (R)-6-((4,6-dimethyl-2-oxo-1,2-dihydropyridin-3-yl)methyl)-2-(trans-4-(dimethylamino)cyclohexyl)-2,4-dimethyl-9-(1-methyl-1H-pyrazol-4-yl)-7,8-dihydro-[1,3]dioxolo[4,5-g]isoquinolin-5(6H)-on]	5.8
Cc1cc(C)c(CN2CCc3c(c(C)c4c(c3-c3cnn(C)c3)O[C@@](C)([C@H]3CC[C@H](N(C)C)CC3)O4)C2=O)c(=O)[nH]1 [Compound 39, (S)-6-((4,6-dimethyl-2-oxo-1,2-dihydropyridin-3-yl)methyl)-2-(trans-4-(dimethylamino)cyclohexyl)-2,4-dimethyl-9-(1-methyl-1H-pyrazol-4-yl)-7,8-dihydro-[1,3]dioxolo[4,5-g]isoquinolin-5(6H)-one]	> 1000
Cc1cc(C)c(CN2CCc3c(c(C)c4c(c3-c3ccc(C)o3)O[C@@](C)([C@H]3CC[C@H](N(C)C)CC3)O4)C2=O)c(=O)[nH]1 [Compound 41, (S)-6-((4,6-dimethyl-2-oxo-1,2-dihydropyridin-3-yl)methyl)-2-(trans-4-(dimethylamino)cyclohexyl)-2,4-dimethyl-9-(5-methylfuran-2-yl)-7,8-dihydro-[1,3]dioxolo[4,5-g]isoquinolin-5(6H)-one]	> 1000
Cc1cc(C)c(CN2CCc3c(c(C)c4c(c3-c3ccc(C)s3)O[C@](C)([C@H]3CC[C@H](N(C)C)CC3)O4)C2=O)c(=O)[nH]1 [Compound 42, (R)-6-((4,6-dimethyl-2-oxo-1,2-dihydropyridin-3-yl)methyl)-2-(trans-4-(dimethylamino)cyclohexyl)-2,4-dimethyl-9-(5-methylthiophen-2-yl)-7,8-dihydro-[1,3]dioxolo[4,5-g]isoquinolin-5(6H)-one]	5.7
Cc1cc(C)c(CN2CCc3c(c(C)c4c(c3-c3ccc(C)s3)O[C@@](C)([C@H]3CC[C@H](N(C)C)CC3)O4)C2=O)c(=O)[nH]1 [Compound 43, (S)-6-((4,6-dimethyl-2-oxo-1,2-dihydropyridin-3-yl)methyl)-2-(trans-4-(dimethylamino)cyclohexyl)-2,4-dimethyl-9-(5-methylthiophen-2-yl)-7,8-dihydro-[1,3]dioxolo[4,5-g]isoquinolin-5(6H)-one]	> 1000
Cc1cc(C)c(CN2CCc3c(c(C)c4c(c3-c3cccnc3)O[C@@](C)([C@H]3CC[C@H](N(C)C)CC3)O4)C2=O)c(=O)[nH]1 [Compound 45, (S)-6-((4,6-dimethyl-2-oxo-1,2-dihydropyridin-3-yl)methyl)-2-(trans-4-(dimethylamino)cyclohexyl)-2,4-dimethyl-9-(pyridin-3-yl)-7,8-dihydro-[1,3]dioxolo[4,5-g]isoquinolin-5(6H)-one]	> 1000
Cc1cc(C)c(CN2CCc3c(c(C)c4c(c3-c3cncnc3)O[C@](C)([C@H]3CC[C@H](N(C)C)CC3)O4)C2=O)c(=O)[nH]1 [Compound 46, (R)-6-((4,6-dimethyl-2-oxo-1,2-dihydropyridin-3-yl)methyl)-2-(trans-4-(dimethylamino)cyclohexyl)-2,4-dimethyl-9-(pyrimidin-5-yl)-7,8-dihydro-[1,3]dioxolo[4,5-g]isoquinolin-5(6H)-one]	7
Cc1cc(C)c(CN2CCc3c(c(C)c4c(c3-c3cncnc3)O[C@@](C)([C@H]3CC[C@H](N(C)C)CC3)O4)C2=O)c(=O)[nH]1 [Compound 47, (S)-6-((4,6-dimethyl-2-oxo-1,2-dihydropyridin-3-yl)methyl)-2-(trans-4-(dimethylamino)cyclohexyl)-2,4-dimethyl-9-(pyrimidin-5-yl)-7,8-dihydro-[1,3]dioxolo[4,5-g]isoquinolin-5(6H)-one]	> 1000
Cc1cc(C)c(CN2CCc3c(c(C)c4c(c3-c3cccn3C)O[C@@](C)([C@H]3CC[C@H](N(C)C)CC3)O4)C2=O)c(=O)[nH]1 [Compound 49, (S)-6-((4,6-dimethyl-2-oxo-1,2-dihydropyridin-3-yl)methyl)-2-(trans-4-(dimethylamino)cyclohexyl)-2,4-dimethyl-9-(1-methyl-1H-pyrrol-2-yl)-7,8-dihydro-[1,3]dioxolo[4,5-g]isoquinolin-5 (6H)-one]	> 1000
Cc1cc(C)c(CN2CCc3c(c(C)c4c(c3-c3ccsc3)O[C@@](C)([C@H]3CC[C@H](N(C)C)CC3)O4)C2=O)c(=O)[nH]1 [Compound 51, (S)-6-((4,6-dimethyl-2-oxo-1,2-dihydropyridin-3-yl)methyl)-2-(trans-4-(dimethylamino)cyclohexyl)-2,4-dimethyl-9-(thiophen-3-yl)-7,8-dihydro-[1,3]dioxolo[4,5-g]isoquinolin-5(6H)-one]	> 1000
Cc1cc(C)c(CN2CCc3c(c(C)c4c(c3-c3cncs3)O[C@@](C)([C@H]3CC[C@H](N(C)C)CC3)O4)C2=O)c(=O)[nH]1 [Compound 53, (S)-6-((4,6-dimethyl-2-oxo-1,2-dihydropyridin-3-yl)methyl)-2-(trans-4-(dimethylamino)cyclohexyl)-2,4-dimethyl-9-(thiazol-5-yl)-7,8-dihydro-[1,3]dioxolo[4,5-g]isoquinolin-5(6H)-one]	> 1000
Cc1cc(C)c(CN2CCc3c(c(C)c4c(c3-n3ccnc3)O[C@](C)([C@H]3CC[C@H](N(C)C)CC3)O4)C2=O)c(=O)[nH]1 [Compound 54, (R)-6-((4,6-dimethyl-2-oxo-1,2-dihydropyridin-3-yl)methyl)-2-(trans-4-(dimethylamino)cyclohexyl)-9-(1H-Imidazol-1-yl)-2,4-dimethyl-7,8-dihydro-[1,3]dioxolo[4,5-g]isoquinolin-5(6H)-one]	28
Cc1cc(C)c(CN2CCc3c(c(C)c4c(c3-n3ccnc3)O[C@@](C)([C@H]3CC[C@H](N(C)C)CC3)O4)C2=O)c(=O)[nH]1 [Compound 55, (S)-6-((4,6-dimethyl-2-oxo-1,2-dihydropyridin-3-yl)methyl)-2-(trans-4-(dimethylamino)cyclohexyl)-9-(1H-imidazol-1-yl)-2,4-dimethyl-7,8-dihydro-[1,3]dioxolo[4,5-g]isoquinolin-5(6H)-one]	> 1000
Cc1cc(C)c(CN2CCc3c(c(C)c4c(c3-c3ccoc3)O[C@](C)([C@H]3CC[C@H](N(C)C)CC3)O4)C2=O)c(=O)[nH]1 [Compound 56, (R)-6-((4,6-dimethyl-2-oxo-1,2-dihydropyridin-3-yl)methyl)-2-(trans-4-(dimethylamino)cyclohexyl)-9-(furan-3-yl)-2,4-dimethyl-7,8-dihydro-[1,3]dioxolo[4,5-g]isoquinolin-5(6H)-one]	7.2
Cc1cc(C)c(CN2CCc3c(c(C)c4c(c3-c3ccoc3)O[C@@](C)([C@H]3CC[C@H](N(C)C)CC3)O4)C2=O)c(=O)[nH]1 [Compound 57, (S)-6-((4,6-dimethyl-2-oxo-1,2-dihydropyridin-3-yl)methyl)-2-(trans-4-(dimethylamino)cyclohexyl)-9-(furan-3-yl)-2,4-dimethyl-7,8-dihydro-[1,3]dioxolo[4,5-g]isoquinolin-5(6H)-one]	> 1000
Cc1cc(C)c(CN2CCc3c(c(C)c4c(c3-c3ccco3)O[C@](C)([C@H]3CC[C@H](N)CC3)O4)C2=O)c(=O)[nH]1 [Compound 58, (R)-2-(trans-4-aminocyclohexyl)-6-((4,6-dimethyl-2-oxo-1,2-dihydropyridin-3-yl)methyl)-9-(furan-2-yl)-2,4-dimethyl-7,8-dihydro-[1,3]dioxolo[4,5-g]isoquinolin-5(6H)-one]	28
Cc1cc(C)c(CN2CCc3c(c(C)c4c(c3-c3ccco3)O[C@@](C)([C@H]3CC[C@H](N)CC3)O4)C2=O)c(=O)[nH]1 [Compound 59, (S)-2-(trans-4-aminocyclohexyl)-6-((4,6-dimethyl-2-oxo-1,2-dihydropyridin-3-yl)methyl)-9-(furan-2-yl)-2,4-dimethyl-7,8-dihydro-[1,3]dioxolo[4,5-g]isoquinolin-5(6H)-one]	> 1000
CN[C@H]1CC[C@H]([C@]2(C)Oc3c(C)c4c(c(-c5ccco5)c3O2)CCN(Cc2c(C)cc(C)[nH]c2=O)C4=O)CC1 [Compound 60, (R)-6-((4,6-dimethyl-2-oxo-1,2-dihydropyridin-3-yl)methyl)-9-(furan-2-yl)-2,4-dimethyl-2-(trans-4-(methylamino)cyclohexyl)-7,8-dihydro-[1,3]dioxolo[4,5-g]isoquinolin-5(6H)-one]	19
CN[C@H]1CC[C@H]([C@@]2(C)Oc3c(C)c4c(c(-c5ccco5)c3O2)CCN(Cc2c(C)cc(C)[nH]c2=O)C4=O)CC1 [Compound 61, (S)-6-((4,6-dimethyl-2-oxo-1,2-dihydropyridin-3-yl)methyl)-9-(furan-2-yl)-2,4-dimethyl-2-(trans-4-(methylamino)cyclohexyl)-7,8-dihydro-[1,3]dioxolo[4,5-g]isoquinolin-5(6H)-one]	> 1000
Cc1cc(C)c(CNC(=O)c2cc(Cl)c3c(c2C)O[C@@](C)([C@H]2CC[C@H](N(C)C)CC2)O3)c(=O)[nH]1 [Control B, (2R)-7-chloro-2-[trans-4-(dimethylamino)cyclohexyl]-N-[(4,6-dimethyl-2-oxo-1,2-dihydropyridin-3-yl)methyl]-2,4-dimethyl-1,3-benzodioxole-5-carboxamide, reference compound]	1.3 to 15
